Data set [1] deals with T1, Caci_0382 (Catenulispora acidiphila, UniProt C7PVH9).
T1 construct: homodimer
T1 sequence (C7PVH9 1-134): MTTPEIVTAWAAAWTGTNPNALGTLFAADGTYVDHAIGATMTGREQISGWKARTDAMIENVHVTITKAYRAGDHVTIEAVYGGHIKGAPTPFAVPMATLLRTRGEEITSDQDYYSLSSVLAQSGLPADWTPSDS
Put plainly: fluorescence thermal shift (Sypro Orange). Conditions: 20 mM Hepes pH 7.5, 150 mM NaCl; 14 μM protein; printed as Tm but evidently the Tm shift; unit and concentration not given; in °C (unit assumed). The data set is classed as binding.

Data set [2] concerns the target T1, Caci_0382. Put plainly: fluorescence thermal shift (Sypro Orange). The note with it: read-out: Tm shift at 0.1 mM. The data set is classed as binding.
Data set [3] deals with the molecule itself. Put plainly: SEC; gel-filtration chromatography, data not shown. For orientation: Size exclusion chromatography separates by hydrodynamic size, large species first.

Turning to `c1c[nH]cn1` [Imidazole], the Tm at Caci_0382 [1] was determined as 10.26.

As for `CN(C)C` [TMA, trimethylamine], at Caci_0382 [2], the ΔTm at 100 µM worked out at 3 °C.

B1: Caci_0382 from Catenulispora acidiphila DSM 44928 (natural protein)
chain: MTTPEIVTAWAAAWTGTNPNALGTLFAADGTYVDHAIGATMTGREQISGWKARTDAMIENVHVTITKAYRAGDHVTIEAVYGGHIKGAPTPFAVPMATLLRTRGEEITSDQDYYSLSSVLAQSGLPADWTPSDS
modifications: selenomethionine-labeled
notes: Caci_0382, hypothetical protein of the NTF2-like family, Catenulispora acidiphila DSM 44928; the gene encodes a 134 amino-acid protein of 14.3 kDa; Subcloned in the pMCSG57 vector, which adds a 6 His-Tag at the N-terminus; 131 Calpha atoms per subunit were aligned between the two crystal forms; also called hypothetical protein Caci_0382
Consider B1, for which the “stoichiometry N” value in data set [3] was 2.

By stoichiometry N is commonly meant a count of units in the complex or per binding partner.

Values taken from PMC3955178, “Structural characterization of a hypothetical protein: a potential agent involved in trimethylamine metabolism in Catenulispora acidiphila” (Journal of Structural and Functional Genomics, 2014).
